Experimental findings from patent publication US12569467B2, “Small molecules that treat or prevent viral infections” (priority 2022, dated 2026) are described below.

Assay [1] has as its system SARS-CoV-2 variant Delta Spike protein pseudotyped lentiviral particles. In words: microbe, parasite or virus in culture. The format is cell-based, SARS-CoV-2 Delta variant. The settings on record: Severe acute respiratory syndrome coronavirus 2, HEK293, read-out: EC50, inhibition of infection of Delta variant.
Assay [2] has as its system spike protein of Omicron variant. The assay is classed as binding, SARS-CoV2 Omicron variant.
For assay [3], the system named is spike protein of Delta variant. The assay is classed as binding, SARS-CoV2 Delta variant.
Assay [4] deals with SARS-CoV-2 variant Omicron Spike protein pseudotyped lentiviral particles. In words: microbe, parasite or virus in culture. The format is cell-based, SARS-CoV-2 Omicron variant. The settings on record: Severe acute respiratory syndrome coronavirus 2, HEK293, read-out: EC50, inhibition of infection of Omicron variant.

Consider `O=C1Nc2ccccc2/C1=C\c1ccc(-c2cc(C(F)(F)F)cc(C(F)(F)F)c2)o1` [CD04872SC, 3-({5-[3,5-di(trifluoromethyl)phenyl]-2-furyl}methylidene)indolin-2-one], for which the figures for the EC50 in assay [1] and in assay [4] were 152 µM and 308 µM, respectively. For the same compound, the “thermal stability change in presence of compound” value in assay [2] and in assay [3] was “same stabilizing tendency” in each case.
